# In article PMC9154192 (PLoS Biology, 2022):
# “And” between values parts separate entries of the source, which are not always exact repeats. Equal entries are not always repeated. Where two headings read alike, the source gives them in different places.
# Legend:
# M. tuberculosis H37Rv [1] = assay type: in vivo, BALB/c mice; conditions: for Efficacy in BALB/C mouse model of pulmonary tuberculosis, Average: Fig 4A; for reduction of bacterial load in lungs compared to drug-free group / granulomatous lesions in lung sections (HE staining): mouse, in vivo; for granulomatous lesions in lung sections (HE staining): po
# M. tuberculosis H37Rv [2] = assay type: cell-based, Mycobacterium tuberculosis; conditions: for RFU/200 μl (replicates1-3), single values / RFU/ml (×104) / RFU/200 μl (average): Fig 2A; for concentration with significant antitubercular effect: fluorescence-based assay
# M. bovis BCG strains = test: organism not typed; assay type: cell-based, Mycobacterium bovis BCG
# XDR M. tuberculosis = assay type: cell-based, Mycobacterium tuberculosis
# [3] = Acute oral toxicity test in mice; assay type: in vivo, BALB/c mice; conditions: single oral, 5 mice; for Deaths of mice, Days after dosing 0: day 0; for Deaths of mice, Days after dosing 1: day 1; for Deaths of mice, Days after dosing 2: day 2; for Deaths of mice, Days after dosing 3: day 3; for Deaths of mice, Days after dosing 4: day 4; for Deaths of mice, Days after dosing 5: day 5; for Deaths of mice, Days after dosing 6: day 6; for Deaths of mice, Days after dosing 7: day 7; for Deaths of mice, Days after dosing 8: day 8; for Deaths of mice, Days after dosing 9: day 9; for Deaths of mice, Days after dosing 10: day 10; for Deaths of mice, Days after dosing 11: day 11; for Deaths of mice, Days after dosing 12: day 12; for Deaths of mice, Days after dosing 13: day 13; for Deaths of mice, Days after dosing 14: day 14
# Method: This experiment was conducted in a toxicity test at Soonchunhyang University's Animal Biological Safety Level 2 (ABSL-2) facility. The study protocol was reviewed and approved by Soonchunhyang University Animal Ethics Committee. Six-week-old female BALB/c were purchased from Koatech (Pyeongtaek, Korea) and five mice per group were tested. Drugs were orally administered once using a zonde and observed for two weeks. Corn oil (Sigma, USA) was used as the vehicle.
# [4] = assay type: in vivo, Crl:CD SD rats; conditions: single oral dose up to 2,000 mg/kg, SD rats, 2 weeks
# Method: Toxicity studies were conducted at Biotoxtech (Korea) under review and approval from IACUC (170842, 180144, 170889) of Biotoxtech. All animals used in the toxicity test were purchased from OrientBio (Korea).
# For acute toxicity study with a single oral administration, 6-week-old Crl:CD SD rats were used. For PP1S, a total of 8 groups (n = 4 rats/group) were used (0, 500, 1,000, and 2,000 mg/kg for females and males, respectively). For PP2S, a total of 4 groups (n = 5 rats/group) were used (0 and 2,000 mg/kg for females and males, respectively). […] Corn oil (Sigma, USA) was used as the vehicle. Control animals were treated only with the same volume of the vehicle.
# [5] = drug conc. 0.39, average of each replicate set
# [6] = drug conc. 0.78, average of each replicate set
smiles,measurement,setting,value
"NNC(=O)c1ccncc1 [INH, isoniazid, reference compound]","Efficacy in BALB/C mouse model of pulmonary tuberculosis, Average","M. tuberculosis H37Rv [1]; group dose 30, 6 mice",4583
same,reduction of bacterial load in lungs compared to drug-free group,M. tuberculosis H37Rv [1],similar
same,granulomatous lesions in lung sections (HE staining),M. tuberculosis H37Rv [1],limited number of small granulomatous lesions
same,"RFU/200 μl (replicates1-3), single values",M. tuberculosis H37Rv [2]; drug conc. 0.19,54850 RFU/200 μl and 54780 RFU/200 μl and 48860 RFU/200 μl and 48850 RFU/200 μl and 51920 RFU/200 μl and 53630 RFU/200 μl and 53710 RFU/200 μl and 53510 RFU/200 μl and 54820 RFU/200 μl
same,RFU/ml (×104),M. tuberculosis H37Rv [2]; drug conc. 0.19,26.4 RFU/ml (×104)
same,RFU/200 μl (average),"M. tuberculosis H37Rv [2]; drug conc. 0.19, average of each replicate set",49877 RFU/200 μl and 53617 RFU/200 μl and 54817 RFU/200 μl
same,"RFU/200 μl (replicates1-3), single values",M. tuberculosis H37Rv [2]; drug conc. 0.39,12610 RFU/200 μl and 12620 RFU/200 μl and 10050 RFU/200 μl and 11010 RFU/200 μl and 12080 RFU/200 μl and 10560 RFU/200 μl and 10740 RFU/200 μl and 10520 RFU/200 μl and 12650 RFU/200 μl
same,RFU/ml (×104),M. tuberculosis H37Rv [2]; drug conc. 0.39,5.7 RFU/ml (×104)
same,RFU/200 μl (average),M. tuberculosis H37Rv [2]; [5],11047 RFU/200 μl and 10607 RFU/200 μl and 12627 RFU/200 μl
same,"RFU/200 μl (replicates1-3), single values",M. tuberculosis H37Rv [2]; drug conc. 0.78,7570 RFU/200 μl and 7470 RFU/200 μl and 7230 RFU/200 μl and 7160 RFU/200 μl and 7680 RFU/200 μl and 7340 RFU/200 μl and 7150 RFU/200 μl and 7460 RFU/200 μl and 7540 RFU/200 μl
same,RFU/ml (×104),M. tuberculosis H37Rv [2]; drug conc. 0.78,3.7 RFU/ml (×104)
same,RFU/200 μl (average),M. tuberculosis H37Rv [2]; [6],7357 RFU/200 μl and 7317 RFU/200 μl and 7527 RFU/200 μl
same,concentration with significant antitubercular effect,M. tuberculosis H37Rv [2],0.78 µg/mL and 0.39 µg/mL
same,MIC,M. bovis BCG strains,0.2 µg/mL
"COC(=O)[C@@H]1CCC(=O)N1Cc1cc2ccc(OC)cc2c2cc(OC)c(OC)cc12 [PP1S, (S)-N-[(2,3,6-Trimethoxy-10-phenanthryl)methyl]-pyroglutamic acid methyl ester]","Efficacy in BALB/C mouse model of pulmonary tuberculosis, Average","M. tuberculosis H37Rv [1]; group dose 15, 6 mice",4150
same,"Efficacy in BALB/C mouse model of pulmonary tuberculosis, Average","M. tuberculosis H37Rv [1]; group dose 30, 6 mice",2508
same,reduction of bacterial load in lungs compared to drug-free group,M. tuberculosis H37Rv [1],more than 90%
same,granulomatous lesions in lung sections (HE staining),M. tuberculosis H37Rv [1],limited number of small granulomatous lesions
same,growth of M. tuberculosis in macrophages (CFU),XDR M. tuberculosis,significantly inhibited the growth
same,"Deaths of mice, Days after dosing 0",[3]; Dose 500 mg/kg,0
same,"Deaths of mice, Days after dosing 1",[3]; Dose 500 mg/kg,0
same,"Deaths of mice, Days after dosing 2",[3]; Dose 500 mg/kg,0
same,"Deaths of mice, Days after dosing 3",[3]; Dose 500 mg/kg,0
same,"Deaths of mice, Days after dosing 4",[3]; Dose 500 mg/kg,0
same,"Deaths of mice, Days after dosing 5",[3]; Dose 500 mg/kg,0
same,"Deaths of mice, Days after dosing 6",[3]; Dose 500 mg/kg,0
same,"Deaths of mice, Days after dosing 7",[3]; Dose 500 mg/kg,0
same,"Deaths of mice, Days after dosing 8",[3]; Dose 500 mg/kg,0
same,"Deaths of mice, Days after dosing 9",[3]; Dose 500 mg/kg,0
same,"Deaths of mice, Days after dosing 10",[3]; Dose 500 mg/kg,0
same,"Deaths of mice, Days after dosing 11",[3]; Dose 500 mg/kg,0
same,"Deaths of mice, Days after dosing 12",[3]; Dose 500 mg/kg,0
same,"Deaths of mice, Days after dosing 13",[3]; Dose 500 mg/kg,0
same,"Deaths of mice, Days after dosing 14",[3]; Dose 500 mg/kg,0
same,"Deaths of mice, Days after dosing 0",[3]; Dose 1000 mg/kg,0
same,"Deaths of mice, Days after dosing 1",[3]; Dose 1000 mg/kg,0
same,"Deaths of mice, Days after dosing 2",[3]; Dose 1000 mg/kg,0
same,"Deaths of mice, Days after dosing 3",[3]; Dose 1000 mg/kg,0
same,"Deaths of mice, Days after dosing 4",[3]; Dose 1000 mg/kg,0
same,"Deaths of mice, Days after dosing 5",[3]; Dose 1000 mg/kg,0
same,"Deaths of mice, Days after dosing 6",[3]; Dose 1000 mg/kg,0
same,"Deaths of mice, Days after dosing 7",[3]; Dose 1000 mg/kg,0
same,"Deaths of mice, Days after dosing 8",[3]; Dose 1000 mg/kg,0
same,"Deaths of mice, Days after dosing 9",[3]; Dose 1000 mg/kg,0
same,"Deaths of mice, Days after dosing 10",[3]; Dose 1000 mg/kg,0
same,"Deaths of mice, Days after dosing 11",[3]; Dose 1000 mg/kg,0
same,"Deaths of mice, Days after dosing 12",[3]; Dose 1000 mg/kg,0
same,"Deaths of mice, Days after dosing 13",[3]; Dose 1000 mg/kg,0
same,"Deaths of mice, Days after dosing 14",[3]; Dose 1000 mg/kg,0
same,"Deaths of mice, Days after dosing 0",[3]; Dose 2000 mg/kg,0
same,"Deaths of mice, Days after dosing 1",[3]; Dose 2000 mg/kg,0
same,"Deaths of mice, Days after dosing 2",[3]; Dose 2000 mg/kg,0
same,"Deaths of mice, Days after dosing 3",[3]; Dose 2000 mg/kg,0
same,"Deaths of mice, Days after dosing 4",[3]; Dose 2000 mg/kg,0
same,"Deaths of mice, Days after dosing 5",[3]; Dose 2000 mg/kg,0
same,"Deaths of mice, Days after dosing 6",[3]; Dose 2000 mg/kg,0
same,"Deaths of mice, Days after dosing 7",[3]; Dose 2000 mg/kg,0
same,"Deaths of mice, Days after dosing 8",[3]; Dose 2000 mg/kg,0
same,"Deaths of mice, Days after dosing 9",[3]; Dose 2000 mg/kg,0
same,"Deaths of mice, Days after dosing 10",[3]; Dose 2000 mg/kg,0
same,"Deaths of mice, Days after dosing 11",[3]; Dose 2000 mg/kg,0
same,"Deaths of mice, Days after dosing 12",[3]; Dose 2000 mg/kg,0
same,"Deaths of mice, Days after dosing 13",[3]; Dose 2000 mg/kg,0
same,"Deaths of mice, Days after dosing 14",[3]; Dose 2000 mg/kg,0
same,"RFU/200 μl (replicates1-3), single values",M. tuberculosis H37Rv [2]; drug conc. 0.39,59110 RFU/200 μl and 59240 RFU/200 μl and 59440 RFU/200 μl and 58960 RFU/200 μl and 59940 RFU/200 μl and 59150 RFU/200 μl and 59270 RFU/200 μl and 59190 RFU/200 μl and 59120 RFU/200 μl
same,RFU/ml (×104),M. tuberculosis H37Rv [2]; drug conc. 0.39,29.6 RFU/ml (×104)
same,RFU/200 μl (average),M. tuberculosis H37Rv [2]; [5],59447 RFU/200 μl and 59203 RFU/200 μl and 59157 RFU/200 μl
same,"RFU/200 μl (replicates1-3), single values",M. tuberculosis H37Rv [2]; drug conc. 0.78,53920 RFU/200 μl and 54090 RFU/200 μl and 54550 RFU/200 μl and 54830 RFU/200 μl and 54570 RFU/200 μl and 54130 RFU/200 μl and 54320 RFU/200 μl and 54040 RFU/200 μl and 53950 RFU/200 μl
same,RFU/ml (×104),M. tuberculosis H37Rv [2]; drug conc. 0.78,27.1 RFU/ml (×104)
same,RFU/200 μl (average),M. tuberculosis H37Rv [2]; [6],54650 RFU/200 μl and 54163 RFU/200 μl and 53987 RFU/200 μl
same,"RFU/200 μl (replicates1-3), single values",M. tuberculosis H37Rv [2]; drug conc. 1.56,29900 RFU/200 μl and 30040 RFU/200 μl and 30750 RFU/200 μl and 30860 RFU/200 μl and 30640 RFU/200 μl and 28310 RFU/200 μl and 28580 RFU/200 μl and 28120 RFU/200 μl and 29920 RFU/200 μl
same,RFU/ml (×104),M. tuberculosis H37Rv [2]; drug conc. 1.56,14.8 RFU/ml (×104)
same,RFU/200 μl (average),"M. tuberculosis H37Rv [2]; drug conc. 1.56, average of each replicate set",30750 RFU/200 μl and 28337 RFU/200 μl and 29953 RFU/200 μl
same,concentration with significant antitubercular effect,M. tuberculosis H37Rv [2],1.56 µg/mL
same,change in body weight compared to control group,[4],no significant change
same,clinical symptoms and death,[4],not observed
